Here are results for one compound from PMC6646438 (Natural Products and Bioprospecting, 2019).

One assay concerns the target T1, melatonin MT2 receptor (Homo sapiens, UniProt P49286).
T1 construct: gene MTNR1B
T1 sequence (P49286 1-362): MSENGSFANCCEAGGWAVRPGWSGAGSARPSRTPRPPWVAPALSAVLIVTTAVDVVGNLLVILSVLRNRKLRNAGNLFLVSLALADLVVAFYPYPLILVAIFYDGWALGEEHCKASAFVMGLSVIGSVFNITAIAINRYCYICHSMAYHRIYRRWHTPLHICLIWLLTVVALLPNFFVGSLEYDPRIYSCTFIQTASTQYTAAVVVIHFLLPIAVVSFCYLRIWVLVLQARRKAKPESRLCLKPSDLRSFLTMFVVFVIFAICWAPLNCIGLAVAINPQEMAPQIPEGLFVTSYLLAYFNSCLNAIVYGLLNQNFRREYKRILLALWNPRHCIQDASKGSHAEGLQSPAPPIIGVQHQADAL
As to the kind of experiment: Fluo-8 calcium flux agonist assay in HEK293 cells stably expressing human MT2, dose-response. The format is cell-based.

In another assay the target is T2, melatonin MT1 receptor (Homo sapiens, UniProt P48039).
T2 construct: gene MTNR1A
T2 sequence (P48039 whole entry): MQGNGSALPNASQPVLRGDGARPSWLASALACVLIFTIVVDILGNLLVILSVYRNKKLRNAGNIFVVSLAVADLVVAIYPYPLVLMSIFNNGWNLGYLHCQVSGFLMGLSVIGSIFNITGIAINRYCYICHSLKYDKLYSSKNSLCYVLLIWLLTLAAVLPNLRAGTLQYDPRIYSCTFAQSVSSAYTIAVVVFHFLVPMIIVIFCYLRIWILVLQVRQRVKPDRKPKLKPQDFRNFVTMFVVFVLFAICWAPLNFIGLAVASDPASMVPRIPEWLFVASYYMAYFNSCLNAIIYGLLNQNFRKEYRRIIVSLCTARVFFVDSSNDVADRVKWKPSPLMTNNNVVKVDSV
Nature of the assay: Fluo-8 calcium flux agonist assay in HEK293 cells stably expressing human MT1, single concentration […]. The class given is cell-based. The conditions noted are these: read-out: % agonistic rate at 0.5 mM.

In the case of `Oc1ccc(Cc2ccc(O)c(Cc3cc(Cc4ccc(O)cc4)c(O)c(Cc4ccc(O)cc4)c3)c2)cc1` [compound 1, gastropolybenzylol G], the EC50 on melatonin MT2 receptor came to 76.2 µM. On melatonin MT1 receptor, the activation at 500 µM was found to be 55.9 ± 4.84%.
